Results: US20040029953A1, “Use of neuropeptide-y antagonists in treatment of alcoholism” (priority 2000, published 2004)
“Also recorded” adds a separate entry of the source.

What was measured:
C57BL/6J mice = assay: Operant ethanol-reinforced lever pressing (CONC FR1 FR1, 16-h sessions) after systemic administration; assay type: in vivo, mouse; details: for alcohol-seeking behavior (lever presses for alcohol) during the peak period: 4th-5th hour of access, vs saline
Excerpt: Another animal model suitable for testing the effectiveness of the NPY antagonist uses alcohol-reinforced lever pressing behavior as described in Olive et al. Eur. J. Neurosci. 2000 Vol 12, 4131-4140. This model is particularly useful for identifying NPY antagonists that prevent or delay alcohol seeking behavior or prevent or reduce the occurence of relapse drinking in recovering alcoholics.
Male C57BL/6J mice (N=8) were housed in standard Plexiglas cages (n=4/cage) with food (Harlan, Indianapolis, Ind.) and water always available. Mice were 20 weeks of age (body weight, 28-35 g) and drug naïve at the start of all testing. During operant self-administration training, food pellets (15 g per overnight session) were placed into the operant chambers and water was available under a fixed ratio-1 (FR-1) schedule of reinforcement.
Test sessions were conducted in 8 Plexiglas operant chambers (Med Associates, Lafayette, Ind.) measuring 15.9×14×12.7 cm with stainless steel grid floors. Each chamber was housed in a sound-attenuating cubicle equipped with a house fan that provided ventilation and helped mask external noise. The left and right wall of each operant chamber was equipped with one ultra-sensitive stainless steel response lever and a liquid delivery system. Liquid solutions (ethanol or water) were maintained in 60 ml syringes mounted on a programmable pump (PH-100, Med Associates), which delivered 0.01 ml per activation into a stainless steel cup located to the left of the associated response lever. Each chamber also contained a house light (illuminated between 16:00-18:00 hr and 06:00-08:00 hr), as well as a stimulus light located above each lever (activated each time the lever was pressed). The chambers were interfaced (Med Associates) to an IBM-compatible PC, which was programmed to record all lever presses and liquid deliveries.
Mice were trained to lever press using reinforcement (10% sucrose w/v) of successive approximations. After initial behavioral shaping sessions, mice were run during 16 hr overnight (16:00-08:00 hrs) training sessions. During these training sessions, both response levers were active on a concurrent fixed ratio one (CONC FR1 FR1) schedule with 10% sucrose vs. water presented as the reinforcer. The position of each solution (left or right) was fixed for each animal but counterbalanced between animals to control for side preference. After 4 days, mice were trained to orally self-administer ethanol (10% v/v) vs. water using a sucrose substitution procedure, which we have adapted for use in the mouse (Olive et al., 2000 Eur. J. Neurosci. 12:4131-4140). Briefly, ethanol (2, 4, 8, or 10% v/v) was incrementally added to the sucrose (10% w/v) solution with 4 days at each increasing concentration. Then, sucrose (10, 5, 2% w/v) was incrementally faded out of the ethanol containing solution with 4 days at each decreasing concentration. After sucrose substitution training, all mice reliably responded on the CONC FR1 FR1 schedule of reinforcement with ethanol (10% v/v) vs. water presented as the reinforcers.

Long-Evans rats [1] = assay: Ethanol (10% v/v) vs. water self-administration after infusion in the PVN, sucrose-faded rats with long-term ethanol history; assay type: in vivo, rat
Excerpt: The effectiveness of known NPY receptor antagonists and NPY Y1-selective or Y5selective receptor antagonists in reducing craving for alcohol and reducing self-administration of alcohol can be tested in experimental animal models. Briefly, Long-Evans rats are conditioned to the laboratory environment and trained to self-administer concurrent ethanol (10% v/v) vs. water using a sucrose-fading procedure (H. H. Samson, Alcohol Clin. Exp. Res., 1986, 10:436442) as described by Hodge et al. (Alcohol, 1993, 10:191-196). Stereotaxic surgery is performed to implant injector guide cannulae aimed at the PVN. Microinjections of test compounds are given, with and without concomitant injection of NPY, into the PVN of the conditioned rats, which are then immediately given the opportunity to self-administer either water or ethanol (10% v/v). The volume of ethanol and water consumed are measured. Ethanol intake is converted from milliliters consumed to gram/kilogram body weight. Relative ethanol intake (preference) is calculated as […] of ethanol consumed divided by total fluid intake (ethanol+water […]). Drug dose effects are analyzed by one-way repeated measures analysis of variance (ANOVA). Post-hoc comparisons between drug doses and vehicle control are conducted using a paired t-test or Dunnett's t-test where appropriate (SigmaStat, Jandel, San Rafael, Calif.).
Animals. Thirty-six male Long-Evans rats (Harlan, Indianapolis, Ind.) were housed individually in Plexiglas cages. Access to water was restricted during the first day of behavioral training, but was continuously available for the remainder of the experiment. Food was always available in the home cage. In experimental chambers, ethanol (10% v/v) and water were available concurrently during daily (M-F) sessions. The animal colony room was maintained on a 12L:12D cycle with the lights on at 06:30. Experimental sessions were run during the light portion of the cycle. All experimental procedures were conducted under institutional and NIH guidelines.
Apparatus. Experimental sessions were conducted in Plexiglas chambers (27×37×21 cm) located in sound-attenuating cubicles (MED Associates, model ENV 016M, Lafayette, Ind.). Chambers were equipped with exhaust fans that masked external noise. The right wall of each chamber contained two 50-ml drinking bottles. Drug solutions were administered bilaterally through stainless steel injectors (Plastics One, Roanoke, Va.), which were connected via plastic tubing to two 1.0 μl syringes (Hamilton, Reno, Nev.). Syringes were mounted on a micro-infusion pump (Harvard Apparatus, Model 22, Natick, Mass.) set to deliver 0.5 μl/min/syringes.
Self-administration procedures. After 2 weeks of adaptation to laboratory housing conditions, fluid access was restricted to 1-h per day (for 2 days only) and two groups of rats (n=12 per group) were trained to drink from the bottles in the experimental chambers by overnight access to sucrose (10% w/v) vs. water during one overnight session. Daily 1 hour sessions were then conducted with sucrose (10% w/v) vs. water available concurrently. The location (i.e., left or right side of the chamber) of the sucrose and water solutions was alternated daily. When sucrose and water intake patterns stabilized, the rats were trained to self-administer concurrent ethanol (10% v/v) vs. water using a sucrose-fading procedure (H. H. Samson, Alcohol Clin. Exp. Res., 1986, 10:436-442) as previously described (e.g., Hodge et al., 1993). Briefly, ethanol was gradually added to the sucrose solution and then sucrose was faded out of the solution until rats were self-administering 10% ethanol vs. water. During the 2-month sucrose-fading procedure, the location of the ethanol/sucrose solution and water were alternated daily.

Long-Evans rats [2] = assay: Ethanol vs. water intake after NPY infusion in the PVN, control rats with no long-term history of ethanol self-administration; assay type: in vivo, rat; details: for ETOH Intake / ETOH Preference (%) / water intake: mean±SEM
Excerpt: Since NPY has potent effects on consummatory behavior, it is possible that NPY infusions in the PVN could alter ethanol intake via mechanisms that are unrelated to experience with the pharmacological effects of ethanol. […] Experimentally naive rats were allowed one week to adapt to the laboratory. They were then implanted with bilateral guide cannulae aimed at the PVN. Experimental sessions began one week after surgery to allow for recovery. During daily 60-min sessions, rats were placed in the self-administration chambers with concurrent ethanol (10% v/v) vs. water available. Baseline levels of ethanol and water intake were measured for one week. Microinjection procedures were then conducted.
(§1) Microinjection procedure. When ethanol and water intake stabilized again, microinjections were conducted once per week. Unanesthetized rats were placed in plastic containers (15×30×15 cm deep) to reduce movement. Obturators were removed and sterile 33-gauge injectors were inserted bilaterally to a depth 1 mm beyond the end of the guide cannulae. Drug solutions were infused bilaterally in distilled water vehicle in a total volume of 1 μl (0.5 μl/side) over a 1-min period. The injectors were left in place for an additional 30-sec period to allow drug diffusion. Precise flow of the solutions was verified before and after each injection to ensure compound delivery. Self-administration sessions began immediately after microinjections. Sterile obturators were reinserted at the end of the behavioral sessions. When co-administered, D-NPY or BIBP 3226 was infused 15-min prior to NPY. Vehicle injections were also performed to control for local pressure or osmotic changes caused by infusions. During one month prior to drug testing, the animals were handled and placed in the plastic tubs to minimize the effects of procedural changes on subsequent drug effects. The data from these sessions were not used in the analysis. After completion of the microinjection protocol, the rats were sacrificed and their brains were removed for histological verification of injection sites.
Data analysis and statistics. Volume of ethanol and water consumed was measured to the nearest 0.5 milliliter at the end of each 1-h session. Ethanol intake was converted from mls consumed to g/kg body weight. Relative ethanol intake (preference) was calculated as mls of ethanol consumed divided by total fluid intake (ethanol+water mils). Drug dose effects were analyzed by one-way repeated measures analysis of variance (ANOVA). Post-hoc comparisons between drug doses and vehicle control were conducted using paired t-test or Dunnett's t-test where appropriate (SigmaStat, Jandel, San Rafael, Calif.).
Data values are presented as mean±SEM.

Long-Evans rats [3] = assay: Body weight, food intake and water intake in the home cage 24 hours after PVN infusion; assay type: in vivo, rat
Description: FIG. 2 depicts the effects of NPY or NPY+D-NPY infused in the PVN on (A) body weight, (B) food intake, and (C) water intake measured in the home cage 24 hours after infusion. Drug doses were administered in random order. Data are plotted as Mean±SEM of 11 rats.
as §1

[4] = any dose of NPY tested, rats without long-term ethanol history
[5] = NPY in the PVN, 24 hours after infusion, ethanol-experienced rats
[6] = NPY, sucrose-inexperienced animals
[7] = D-NPY co-administered with NPY (10 fmol) in the PVN

CC1(C)CC(=O)C(C2C3=C(CC(C)(C)CC3=O)Oc3ccccc32)C(=O)C1 (centres unmarked) [L 152,804, 2-(3,3-dimethyl-1-oxo-4H-1H-xanthen-9-yl)-5,5-dimethylcyclohexane-1,3-dione]
self-administration during the 13th hour of access (C57BL/6J mice; 60 mg/kg): compensatory increase in self-administration
alcohol-seeking behavior (lever presses for alcohol) during the peak period (C57BL/6J mice; 60 mg/kg): significantly decreased alcohol-seeking behavior
alcohol-seeking behavior (lever presses for alcohol) during the peak period (C57BL/6J mice; 60 mg/kg, listed as LI 52,804): blocked this peak in alcohol-seeking behavior
latency to the first response (delay to first alcohol lever press) (C57BL/6J mice; dose-dependent, vs no injection and saline controls): significantly increased the latency to the first response; also recorded: dose dependently delayed the onset of responding
response latency, statistical significance (C57BL/6J mice; highest dose): did not achieve significance
water intake during 16-h sessions (C57BL/6J mice; systemic, 10, 30 and 60 mg/kg): no effect on water intake
ethanol self-administration (C57BL/6J mice; the two low doses (10, 30 mg/kg)): did not significantly alter ethanol self-administration

Neuropeptide Y [NPY]
ethanol intake (Long-Evans rats [1]; NPY (10 fmol) in the PVN, BIBP 3226 group of 9 rats): significantly increased ethanol intake above control values
water intake during experimental sessions (Long-Evans rats [1]; NPY infused in the PVN): decreased water intake in a dose-dependent manner; also recorded: significantly decreased water intake
ethanol intake (Long-Evans rats [1]; NPY infused in the PVN, all doses, 1-hour session, vs vehicle control): increases alcohol self-administration; also recorded: significantly increased ethanol intake
ethanol preference (Long-Evans rats [1]; NPY infused in the PVN, dose-dependent, 1-hour session): significantly increased ethanol preference
ethanol as share of fluid consumption during daily sessions (Long-Evans rats [1]; two highest doses of NPY in the PVN): greater than 90%
ETOH Intake (Long-Evans rats [2]; NPY 10.0 fmol in the PVN): 0.0330 ± 0.024 g/kg/h
ETOH Preference (%) (Long-Evans rats [2]; NPY 10.0 fmol in the PVN): 20.0 ± 13.333%
water intake (Long-Evans rats [2]; NPY 10.0 fmol in the PVN): 0 ± 0 mL/h
ETOH Intake (Long-Evans rats [2]; NPY 100.0 fmol in the PVN): 0.0550 ± 0.03 g/kg/h
ETOH Preference (%) (Long-Evans rats [2]; NPY 100.0 fmol in the PVN): 30 ± 15.275%
water intake (Long-Evans rats [2]; NPY 100.0 fmol in the PVN): 0.3 ± 0.133 mL/h
change in ethanol intake (Long-Evans rats [2]; [4]): no dose of NPY tested produced a change; also recorded: no effect on ethanol intake
change in ethanol preference (Long-Evans rats [2]; [4]): no dose of NPY tested produced a change
change in water intake (Long-Evans rats [2]; [4]): no dose of NPY tested produced a change
body weight in the home cage (Long-Evans rats [3]; [5]): no effect
food consumption in the home cage (Long-Evans rats [3]; [5]): no effect
water intake in the home cage (Long-Evans rats [3]; NPY in the PVN, 24 hours after infusion, ethanol-experienced rats, p<0.05): reduced water intake in the home cage; also recorded: small but significant reductions
body weight in the home cage (Long-Evans rats [3]; [6]): no effect
food intake in the home cage (Long-Evans rats [3]; [6]): no effect
water intake in the home cage (Long-Evans rats [3]; [6]): no effect

[D-Tyr^27,36,D-Thr^32] Neuropeptide Y (27-36) [D-NPY]
ethanol intake (Long-Evans rats [1]; D-NPY alone infused in the PVN): partial, but significant, decrease in ethanol intake
NPY-induced decrease in water intake during sessions (Long-Evans rats [1]; [7]): completely blocked the effects of NPY on ethanol and water intake; also recorded: significantly reversed NPY-induced decreases in water intake
NPY-induced increase in ethanol intake (Long-Evans rats [1]; [7]): completely blocked the effects of NPY on ethanol and water intake
NPY-induced increase in ethanol preference (Long-Evans rats [1]; D-NPY co-administered with NPY (10 fmol) in the PVN, P<0.09): did not significantly alter
body weight in the home cage (Long-Evans rats [3]; D-NPY alone or in combination with NPY in the PVN): produced no effect on body weight
